Experimental data published in the supplement of paper PMC10307832.

Columns and labels:
[1] = compound: C1=CC2=NC=CN=C2C=C1/C=C/3\C(=O)NC(=O)S3 + CC(=O)Nc1cccc(-n2c(=O)n(C3CC3)c(=O)c3c(Nc4ccc(I)cc4F)n(C)c(=O)c(C)c32)c1 [Trametinib] (partner 0.02 µM); assay: relative viability (nuclei count vs DMSO), 5 days (fraction); higher = more cells survive
Summary of the method: (§1)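 Medians of duplicate plates are given as relative viability. That measure is the nuclei count in treated wells divided by the count in vehicle wells. Counts were taken on 4× images of lung cancer cell lines in 1536-well plates, 5 days after pin-tool dosing the day after seeding with one drug alone or a fixed anchor-drug dose plus five library-drug doses (not always all listed) in √10 steps.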

BGJ398 + Dasatinib = compound: CCN1CCN(c2ccc(Nc3cc(N(C)C(=O)Nc4c(Cl)c(OC)cc(OC)c4Cl)ncn3)cc2)CC1 [BGJ398] + Cc1nc(Nc2ncc(C(=O)Nc3c(C)cccc3Cl)s2)cc(N2CCN(CCO)CC2)n1 [Dasatinib] (partner 0.075 µM); assay: as above
Summary of the method: as §1

Cell Line | relative viability ([1]; first compound 0.02 µM) | relative viability ([1]; first compound 0.06325 µM) | relative viability ([1]; first compound 0.2 µM) | relative viability ([1]; first compound 0.6325 µM) | relative viability ([1]; first compound 2 µM) | relative viability (BGJ398 + Dasatinib; first compound 0.01 µM) | relative viability (BGJ398 + Dasatinib; first compound 0.03162 µM) | relative viability (BGJ398 + Dasatinib; first compound 0.1 µM) | relative viability (BGJ398 + Dasatinib; first compound 0.3162 µM) | relative viability (BGJ398 + Dasatinib; first compound 1 µM)
HCC-44 | 0.961 | 1 | 1.05 | 1.12 | 1 |  |  |  |  | 
HCC-827 | 0.611 | 0.35 | 0.505 | 0.456 | 0.544 | 0.223 | 0.123 | 0.329 | 0.249 | 0.325
NCI-H1623 |  |  |  |  |  | 0.586 | 0.525 | 0.564 | 0.525 | 0.478
NCI-H2347 | 0.296 | 0.295 | 0.225 | 0.312 | 0.156 | 0.314 | 0.291 | 0.342 | 0.278 | 0.262
PC-14 | 0.702 | 1.16 | 0.835 | 0.738 | 0.938 | 0.294 | 0.0382 | 0.234 | 0.141 | 0.317
NCI-H1651 | 0.821 | 0.642 | 0.86 | 0.849 | 0.725 | 0.48 | 0.416 | 0.482 | 0.256 | 0.333
HARA | 0.477 | 0.632 | 0.507 | 0.788 | 0.672 | 0.26 | 0.196 | 0.227 | 0.232 | 0.151
NCI-H1650 | 0.541 | 0.595 | 0.686 | 0.559 | 0.63 | 0.31 |  | 0.205 | 0.163 | 0.17
NCI-H1395 | 1.01 | 0.974 | 1.06 | 0.978 | 1.02 | 0.41 | 0.397 | 0.363 | 0.379 | 0.313
LU99A | 0.564 | 0.47 | 0.607 | 0.587 | 0.427 | 0.569 | 0.487 | 0.518 | 0.321 | 0.409
NCI-H1355 | 0.385 | 0.432 | 0.462 | 0.413 | 0.382 | 0.658 | 0.713 | 0.74 | 0.735 | 0.507
HCC-78 | 0.772 | 0.643 | 0.677 | 0.794 | 0.532 | 0.385 | 0.375 | 0.34 | 0.388 | 0.362
NCI-H1563 |  |  |  |  |  | 0.461 | 0.491 | 0.432 | 0.391 | 0.329
HCC-15 | 0.41 | 0.393 | 0.397 | 0.353 | 0.263 | 0.648 | 0.645 | 0.631 | 0.639 | 0.576
EKVX | 0.301 | 0.392 | 0.32 | 0.322 | 0.33 | 0.528 |  | 0.807 | 0.539 | 0.565
NCI-H2087 | 0.178 | 0.188 | 0.17 | 0.179 | 0.233 | 0.824 | 0.898 | 0.808 | 0.801 | 0.871

Cell Line | relative viability ([1]; first compound 0.02 µM) | relative viability ([1]; first compound 0.06325 µM) | relative viability ([1]; first compound 0.2 µM) | relative viability ([1]; first compound 0.6325 µM) | relative viability ([1]; first compound 2 µM) | relative viability (BGJ398 + Dasatinib; first compound 0.01 µM) | relative viability (BGJ398 + Dasatinib; first compound 0.03162 µM) | relative viability (BGJ398 + Dasatinib; first compound 0.1 µM) | relative viability (BGJ398 + Dasatinib; first compound 0.3162 µM) | relative viability (BGJ398 + Dasatinib; first compound 1 µM)
LK-2 | 0.769 | 0.813 | 0.847 | 0.828 | 0.567 | 0.286 | 0.248 | 0.163 | 0.203 | 0.179
NCI-H1437 | 0.475 | 0.448 | 0.534 | 0.45 | 0.329 | 0.484 | 0.444 | 0.373 | 0.42 | 0.424
COR-L23 | 0.557 | 0.596 | 0.617 | 0.567 | 0.422 | 0.474 | 0.527 | 0.571 | 0.464 | 0.456
ABC-1 |  |  |  |  |  | 0.504 | 0.539 | 0.608 | 0.545 | 0.515
SW 900 | 0.554 | 0.853 | 0.742 |  | 0.776 | 0.448 | 0.388 | 0.352 | 0.383 | 0.232
NCI-H838 | 0.537 | 0.47 | 0.555 | 0.454 | 0.366 | 0.278 | 0.337 | 0.28 | 0.257 | 0.225
NCI-H1648 | 0.434 | 0.401 | 0.496 |  | 0.487 |  |  |  |  | 
A-427 | 0.777 | 0.773 | 0.725 | 0.75 | 0.596 | 0.656 | 0.694 | 0.674 | 0.348 | 0.598
NCI-H1792 | 0.363 |  | 0.542 | 0.386 | 0.248 | 0.644 | 0.783 | 0.741 | 0.497 | 0.343
LCLC-97TM1 | 0.197 | 0.193 | 0.222 | 0.232 | 0.167 | 0.671 | 0.92 | 0.773 | 0.646 | 0.921
LCLC-103H | 0.676 | 0.701 | 0.634 | 0.665 | 0.666 | 0.471 | 0.446 | 0.447 | 0.487 | 0.381
PC-3 [JPC-3] | 0.627 | 0.772 | 0.734 | 0.736 | 0.646 | 0.949 |  | 1.02 | 0.854 | 1.01
BEN | 1.06 | 0.885 | 0.986 | 1.05 | 0.856 | 0.349 | 0.298 | 0.331 | 0.252 | 0.26
NCI-H1666 | 0.826 | 0.813 | 0.87 | 0.958 | 0.696 | 0.764 | 0.802 | 0.911 | 0.759 | 0.697
LC-2-ad | 0.884 | 0.991 | 0.931 | 0.972 | 0.83 | 0.572 | 0.756 | 0.566 | 0.538 | 0.433
